Results taken from ChEMBL document CHEMBL1143875, “Synthesis and structure-activity relationships of thiadiazole-derivatives as potent and orally active peroxisome proliferator-activated receptors alpha/delta dual agonists” (Bioorg Med Chem, 2008).
pEC50: −log10 of the molar value. Active and inactive are the calls of the source. No cut-off for these calls is given here.

Experiments:
[1] = Induction of ABCA1 gene expression in human skeletal muscle cells at 1 nM by RT-PCR; type: functional
[2] = Induction of ABCA1 gene expression in human skeletal muscle cells at 1000 nM by RT-PCR; type: functional
[3] = system: Rattus norvegicus; experiment: Decrease in total cholesterol level in hypercholesterolemic Sprague-Dawley rat serum at 0.1 to 1 mg/kg, po after 8 days; type: functional; settings: dose mg/kg 0.1-1
[4] = system: Rattus norvegicus; experiment: Decrease in triglyceride level in po dosed hypercholesterolemic Sprague-Dawley rat serum after 8 days; type: functional, organism-based
[5] = Cmax in Sprague-Dawley rat at 0.1 mg/kg administered as multiple dose after 8 days; type: ADME, organism-based; design: dose 0.1 mg/kg; settings: in vivo
[6] = Cmax in Sprague-Dawley rat at 0.3 mg/kg administered as multiple dose after 8 days; type: ADME, organism-based; design: dose 0.3 mg/kg; settings: in vivo
[7] = Cmax in Sprague-Dawley rat at 1 mg/kg administered as multiple dose after 8 days; type: ADME, organism-based; design: dose 1 mg/kg; settings: in vivo
[8] = Cmax in Sprague-Dawley rat at 3 mg/kg administered as multiple dose after 8 days; type: ADME, organism-based; design: dose 3 mg/kg; settings: in vivo
[9] = Cmax in Sprague-Dawley rat at 3 mg/kg administered as single dose on day 8; type: ADME, organism-based; design: dose 3 mg/kg; settings: in vivo
[10] = AUC in Sprague-Dawley rat at 0.1 mg/kg administered as multiple dose after 8 days; type: ADME, organism-based; design: dose 0.1 mg/kg; settings: plasma
[11] = AUC in Sprague-Dawley rat at 1 mg/kg administered as multiple dose after 8 days; type: ADME, organism-based; design: dose 1 mg/kg; settings: plasma
[12] = Half life in Sprague-Dawley rat at 0.3 mg/kg administered as multiple dose after 8 days; type: ADME, organism-based; design: dose 0.3 mg/kg; settings: in vivo
[13] = system: Mus musculus; experiment: Increase in hApoA1 level in po dosed hApoA1 transgenic mouse after 7 days; type: functional, organism-based
[14] = system: Mus musculus; experiment: Reduction in triglyceride level in po dosed hApoA1 transgenic mouse after 7 days; type: functional, organism-based
[15] = system: Mus musculus; experiment: Decrease in non esterified free fatty acid level i in po dosed hApoA1 transgenic mouse after 7 days; type: functional, organism-based
[16] = system: Mus musculus; experiment: […] effect of ob/ob C57BL/6J-leptin deficient obese mouse assessed as reduction in serum glucose level at 0.1 to 3 mg/kg, po after 11 days; type: functional; design: scale not given: the % may be the effect or the level left; settings: dose mg/kg 0.1-3
[17] = system: Mus musculus; experiment: […] effect of ob/ob C57BL/6J-leptin deficient obese mouse assessed as reduction in triglyceride level at 0.1 to 3 mg/kg, po after 11 days; type: functional; design: scale not given: the % may be the effect or the level left; settings: dose mg/kg 0.1-3
[18] = AUC in Beagle dog at 3 mg/kg administered as multiple dose after 7 days; type: ADME, organism-based, Canis lupus familiaris; design: dose 3 mg/kg; settings: plasma
[19] = AUC in Beagle dog at 10 mg/kg administered as single dose on day 7; type: ADME, organism-based, Canis lupus familiaris; design: dose 10 mg/kg; settings: plasma
[20] = Half life in Beagle dog at 3 mg/kg administered as multiple dose after 7 days; type: ADME, organism-based, Canis lupus familiaris; design: dose 3 mg/kg; settings: in vivo
[21] = Half life in Beagle dog at 10 mg/kg administered as single dose on day 7; type: ADME, organism-based, Canis lupus familiaris; design: dose 10 mg/kg; settings: in vivo
[22] = system: Mus musculus; experiment: […] effect of ob/ob C57BL/6J-leptin deficient obese mouse assessed as reduction in body weight at 0.1 to 3 mg/kg, po after 11 days; type: functional, organism-based
[23] = Cmax in ob/ob C57BL/6J-leptin deficient obese mouse at 0.1 mg/kg administered as multiple dose after 11 days; type: ADME, organism-based; design: dose 0.1 mg/kg; settings: in vivo
[24] = Cmax in ob/ob C57BL/6J-leptin deficient obese mouse at 0.3 mg/kg administered as multiple dose after 11 days; type: ADME, organism-based; design: dose 0.3 mg/kg; settings: in vivo
[25] = AUC in ob/ob C57BL/6J-leptin deficient obese mouse at 3 mg/kg administered as multiple dose after 11 days; type: ADME, organism-based; design: dose 3 mg/kg; settings: plasma
[26] = Half life in ob/ob C57BL/6J-leptin deficient obese mouse at 1 mg/kg administered as multiple dose after 11 days; type: ADME, organism-based; design: dose 1 mg/kg; settings: in vivo
[27] = Half life in ob/ob C57BL/6J-leptin deficient obese mouse at 3 mg/kg administered as multiple dose after 11 days; type: ADME, organism-based; design: dose 3 mg/kg; settings: in vivo
[28] = system: Canis familiaris; experiment: Antihyperlipidemic activity in Beagle dog serum assessed as reduction in triglyceride level at 0.3 to 10 mg/kg, po/day after 7 days; type: functional, organism-based; settings: Canis lupus familiaris
[29] = system: Canis familiaris; experiment: Antihyperlipidemic activity in Beagle dog serum assessed as reduction in free fatty acids level at 0.3 to 10 mg/kg, po/day after 7 days; type: functional, organism-based; settings: Canis lupus familiaris
[30] = system: Canis familiaris; experiment: Effect on aspartate aminotransferase level in Beagle dog serum at 0.3 to 3 mg/kg, po/day after 7 days; type: functional, organism-based; settings: Canis lupus familiaris
[31] = system: Canis familiaris; experiment: Effect on alanine aminotransferase level in Beagle dog serum at 0.3 to 3 mg/kg, po/day after 7 days; type: functional, organism-based; settings: Canis lupus familiaris
[32] = Cmax in Beagle dog at 1 mg/kg administered as multiple dose after 7 days; type: ADME, organism-based, Canis lupus familiaris; design: dose 1 mg/kg; settings: in vivo
[33] = Cmax in Beagle dog at 3 mg/kg administered as multiple dose after 7 days; type: ADME, organism-based, Canis lupus familiaris; design: dose 3 mg/kg; settings: in vivo
[34] = target: T1, Peroxisome proliferator-activated receptor alpha (Homo sapiens, UniProt Q07869); experiment: Agonist activity at human PPARalpha-Gal4 in HEK293 cells by luciferase reporter assay; type: functional, cell-based
T1 sequence (Q07869 whole entry): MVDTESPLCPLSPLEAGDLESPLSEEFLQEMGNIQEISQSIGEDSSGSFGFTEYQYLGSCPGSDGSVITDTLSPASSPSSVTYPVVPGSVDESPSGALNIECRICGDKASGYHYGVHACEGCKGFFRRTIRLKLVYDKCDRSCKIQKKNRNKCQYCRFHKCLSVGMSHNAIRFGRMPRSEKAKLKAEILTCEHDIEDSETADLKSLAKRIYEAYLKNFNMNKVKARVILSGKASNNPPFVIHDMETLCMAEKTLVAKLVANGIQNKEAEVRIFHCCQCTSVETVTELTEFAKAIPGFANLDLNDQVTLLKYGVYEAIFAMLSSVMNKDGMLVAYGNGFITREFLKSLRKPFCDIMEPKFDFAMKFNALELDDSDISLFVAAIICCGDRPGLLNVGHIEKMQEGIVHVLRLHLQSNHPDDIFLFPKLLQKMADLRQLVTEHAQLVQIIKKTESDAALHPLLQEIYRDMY

[35] = target: T2, Peroxisome proliferator-activated receptor alpha (Homo sapiens) (UniProt Q07869); experiment: Agonist activity at human PPARalpha-Gal4 in HEK293 cells by luciferase reporter assay relative to (S)-2-{2-[1-ethyl-3-(4-trifluoro-methoxyphenyl)ureido]indan-5-ylsulfanyl}-2-methylpropionic acid; type: functional, cell-based
T2 sequence (whole entry): T1 sequence (Q07869 whole entry)

[36] = Activity at retinoic acid X receptor

Compound: Cc1cc(SCc2nc(-c3ccc(Cl)c(Cl)c3)ns2)ccc1OC(C)(C)C(=O)O
- Fold change [1]: 1.5
- Fold change [2]: 4.8
- Activity [3]: 263 mg/dL
- Activity [4]: Dose-dependent effect
- Cmax [5]: 82 ng/mL
- Cmax [6]: 231 ng/mL
- Cmax [7]: 1360 ng/mL
- Cmax [8]: 2000 ng/mL
- Cmax [9]: 2520 ng/mL
- AUC at 192 h [10]: 738 ng·h/mL
- AUC at 192 h [11]: 13900 ng·h/mL
- half-life [12]: 306 min
- Activity [13]: Dose-dependent effect
- Activity [14]: Active
- Activity [15]: Active
- Activity [16]: 52%
- Activity [17]: 83%
- AUC at 168 h [18]: 24100 ng·h/mL
- AUC [19]: 57200 ng·h/mL
- half-life [20]: 360 min
- half-life [21]: 348 min
- Activity [22]: Active
- Cmax [23]: 480 ng/mL
- Cmax [24]: 1840 ng/mL
- AUC at 264 h [25]: 249 µg·h/mL
- half-life [26]: 312 min
- half-life [27]: 402 min
- Activity [28]: Dose-dependent effect
- Activity [29]: Dose-dependent effect
- Activity [30]: inactive
- Activity [31]: inactive
- Cmax [32]: 1530 ng/mL
- Cmax [33]: 6710 ng/mL
- pEC50 [34]: 7.00
- Efficacy [35]: 56%
- Activity [36]: inactive
